How the values were obtained:
[1] = tested on: blood tri-glyceride level; assay: Animal test of fat absorption suppressive effect: blood tri-glyceride AUC after corn oil; type: in vivo; details: Male SD rats
Method: (1) Sample for control group: Distilled water was filtrated by a membrane filter (DISMIC-13CP, PTFE, φ0.45 μm, ADVANTEC) and used as a test sample for the control group.
(2) Sample for protamine group: Protamine (2.50 g) was dissolved in distilled water (50 mL) filtrated by a membrane filter and used as a test sample for the protamine group.
(3) Sample for alginate mixture group: As a dispersant, soybean polysaccharide (SM-700, 400 mg) was dissolved in distilled water (50 mL) filtrated by a membrane filter to prepare a 0.8% dispersant solution. Protamine (2.00 g) was dissolved with the 0.8% dispersant solution (20 mL) to prepare a protamine solution. To the protamine solution (12.5 mL), an alginate solution (12.5 mL), which was prepared by dissolving alginate (1.60 g) in the 0.8% dispersant solution (20 mL), was added while stirring to prepare a protamine complex suspension and used as a test sample for an alginate complex (mixture) group.
(4) Sample for gum arabic mixture group: Protamine (2.00 g) was dissolved in distilled water (20 mL) to prepare a protamine solution. […]
Evaluation was performed using Male SD rats (6 weeks old, 7 rats per group). […] Using the plasma samples, a blood tri-glyceride level was measured and compared to the control group with respect to blood-level area under the curve (AUC).

[2] = tested on: fat absorption; details: oral; protamine dose of 0.5 g; cited from earlier work

Substance: protamine
- fat absorption suppressive effect compared to the control group ([1]; oral, corn oil load): significant fat absorption suppressive effect
- AUC relative to control group (blood tri-glyceride level) ([1]; test substance 5 mL/kg orally (corresponding to 0.5 g/kg in terms of protamine), then corn oil 5 mL/kg, blood at 0, 1.5, 3.0, 4.5 hours): 78 ± 7%
- fat absorption suppressive effect when orally taken by humans [2]: exerts a fat absorption suppressive effect

From patent US8399014B2, “Physiologically active complex comprising protamine and/or salt therefor and an acidic macromolecular substance, and use thereof” (Maruha Nichiro Foods, Inc., priority 2008, dated 2013)
